In patent US10039772B2, “Methods and compositions for treating alcohol use disorders” (priority 2015, dated 2018):
Entries after “also recorded” stand apart in the source; their conditions may differ.

Legend:
[1] = in vivo; cited from earlier work
[2] = tested on: dependent and non-dependent C57BL/6J mice; assay: Mouse limited access 2-bottle choice with chronic intermittent ethanol exposure (CIE); format: in vivo; conditions: for ethanol intake in non-dependent and dependent mice (CIE paradigm): limited access 2-bottle choice, acute IP
Protocol: Exposure of mice to repeated cycles of intermittent ethanol vapor in order to induce dependence increases ethanol drinking following withdrawal in a 2-bottle choice paradigm (112, 113). Thus, the CIE paradigm is used to test the effects of a drug on dependent and nondependent drinking in mice. Briefly, C57BL/6J mutant and WT mice had access to two bottles, one containing water and the other containing 15% (w/v) ethanol, for 2 hours starting 3 hours into the dark phase. Following acquisition of stable alcohol intake, half of the mice were subjected to repeated bouts of ethanol vapor exposure consisting of 16 hours per day for 4 days. Before each exposure to ethanol vapor, mice were IP injected with a solution of 20% v/v ethanol and 68.1 mg/kg pyrazole and immediately placed into ethanol vapor chambers (La Jolla Ethanol Research, CA). Tail blood sampling for blood ethanol level (BAL) determination was carried out daily. Target BALs were 150-200 mg %. Seventy-two hours following removal from the chambers, mice received access to water vs. 20% ethanol for 2 hours, and again over the next 4 days. The following week, mice were re-exposed to the ethanol vapor/control conditions and again tested for t2-bottle choice drinking for 5 days. Three vapor bouts followed by 2-bottle choice were carried out. Mice were weighed every 4-6 days throughout the 2-bottle choice sessions and daily during the vapor exposure bouts. Food and water were available ad libitum and mice were group housed except during the ethanol drinking sessions.

C57BL/6J mice = assay: Mouse drinking in the dark (DID) binge-like drinking; format: in vivo; conditions: for ethanol intake in the DID paradigm: mice, 4 h drinking session, vs saline vehicle
Protocol: The DID paradigm capitalizes on the circadian rhythm in drinking of mice utilizing a discrete time of exposure to ethanol to obtain pharmacologically significant ethanol drinking in a four-day procedure (114, 115). It is considered a preclinical model of binge alcohol drinking (116). Blood ethanol levels of C57BL/6J mice in DID are reliably over 100 mg % following the final drinking bout and produce behavioral intoxication in C57BL/6J mice (115). In the DID paradigm, the water bottle is replaced with a bottle containing 20% ethanol for 2 hours in the home cage 3 hours after lights go off. The design involves 3 daily drinking sessions of 2 hours and a fourth of 4 hours (114, 115).

Wistar rats = conditions: saccharin 0.004%; 0 and 40 mg/kg IP 90 min prior; 30 min session, FR1; listed as carbenoxolone
[3] = tested on: alcohol dependent and nondependent Wistar rats; assay: Rat operant self-administration of alcohol (dependent and nondependent rats); format: in vivo; conditions: 0, 20, 40 mg/kg IP 90 min prior, 30 min session, FR1; for operant alcohol self-administration (lever press responding for alcohol): both dependent and nondependent rats, alcohol 10% w/v
Protocol: Self-administration sessions were conducted in standard operant conditioning chambers (Med Associates). The rats were trained to self-administer alcohol as previously reported (13). First, the rats were given free-choice access to alcohol (10% w/v) and water for 1 day in their home cages to habituate them to the taste of alcohol. Second, the rats were subjected to an overnight session in the operant chambers with access to one lever (right lever) that delivered water in a fixed-ratio 1 (FR1) schedule where every lever press is reinforced with delivery of 0.1 ml of solution. Food was available ad libitum during this training. Third, after 1 day off, the rats were subjected to a 2 hour session (FR1) for 1 day and a 1 hour session (FR1) the next day, with one lever delivering alcohol (right lever). All of the subsequent sessions lasted 30 min, and two levers were available (left lever: water; right lever: alcohol) until stable levels of intake were reached. Upon completion of this procedure, the animals were allowed to self-administer a 10% (w/v) alcohol solution and water on an FR1 schedule of reinforcement.
The rats were made dependent by chronic, intermittent exposure to alcohol vapors as previously described (13).
Effect of carbenoxolone (CBX) on alcohol drinking in rats and mice.

## CC1(C(=O)O)CCC2(C)CCC3(C)C(=CC(=O)C4C5(C)CCC(OC(=O)CCC(=O)O)C(C)(C)C5CCC43C)C2C1 (stereo not drawn) [Number 3, 18β-glycyrrhetinic acid 3β-O-hemisuccinate]
[1]
  crossing of the blood brain barrier (BBB): does not effectively cross
[2]; listed as CBX
  ethanol intake in non-dependent and dependent mice (CIE paradigm): reduces
[2]; listed as Carbenoxolone
  ethanol intake in non-dependent and dependent mice (CIE paradigm): reduced
[2]; limited access (2 h) 2-bottle choice after alcohol vapor, 40 mg/kg IP
  ethanol intake, dependent mice: reduced
[2]; limited access (2 h) 2-bottle choice, 20 and 40 mg/kg IP
  ethanol intake, non-dependent mice: reduced
C57BL/6J mice; first 2 h vs whole 4 h session
  time course of the effect on ethanol intake within the DID session: more pronounced in the first 2 hours
C57BL/6J mice; listed as CBX
  ethanol intake in the DID paradigm: reduce
C57BL/6J mice; listed as Carbenoxolone
  ethanol intake in the DID paradigm: reduced
Wistar rats
  operant self-administration of saccharin-sweetened water: did not affect
[3]; listed as CBX
  operant alcohol self-administration (lever press responding for alcohol): decreases; also recorded: dose-dependently reduced
[3]; listed as carbenoxolone
  operant alcohol self-administration (lever press responding for alcohol): effectively and dose-dependently reduces
[3]; dependent and nondependent rats, listed as CBX
  water intake / water responding: did not influence; also recorded: No significant effects
